# From patent US8148367B2 (Takeda Pharmaceutical Company Limited, priority 2008, dated 2012)
# Target: T1, Recombinant human renin (Homo sapiens, UniProt P00797)
# T1 construct: isolate the active form (residues 67-406); made in house; host or cells: FreeStyle 293-F cells, transient expression of pcDNA3.1(+)/hREN
# T1 sequence (P00797 67-406): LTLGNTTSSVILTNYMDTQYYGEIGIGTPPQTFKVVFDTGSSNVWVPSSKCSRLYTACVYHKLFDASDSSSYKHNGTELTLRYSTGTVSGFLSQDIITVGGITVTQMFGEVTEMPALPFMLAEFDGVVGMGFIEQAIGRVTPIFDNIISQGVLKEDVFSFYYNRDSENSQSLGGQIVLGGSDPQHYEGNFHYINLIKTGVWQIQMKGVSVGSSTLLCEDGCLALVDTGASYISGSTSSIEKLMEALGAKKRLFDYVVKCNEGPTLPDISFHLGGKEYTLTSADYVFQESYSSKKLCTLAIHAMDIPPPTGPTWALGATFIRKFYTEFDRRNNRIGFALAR
# Assay: In vitro enzymatic activity assay of renin inhibitors (fluorescence, QXL520/HiLyteFluo488 peptide substrate)
# Type: biochemical
# Conditions: recombinant human renin 3 nM, 1 μM substrate, pre-incubated 10 minutes at 37° C., incubation one hour, pH 7.4, 5% DMSO; read-out: IC50 of Exemplified Compounds Against Renin
row,Compound,IC50 [nM]
1,"O=C(c1c(-c2ccccc2)n(-c2cccc(N3CCOCC3)c2)c(=O)n1Cc1cccc(OCCOc2ccccc2)c1)N1CCNCC1 [Example 191, 1-(3-Morpholinophenyl)-3-(3-(2-phenoxyethoxy)benzyl)-5-phenyl-4-(piperazine-1-carbonyl)-1H-imidazol-2(3H)-one]",100 to 500
2,"O=C(c1[nH]c(=O)n(-c2ccccc2[N+](=O)[O-])c1-c1ccccc1)N1CCNC[C@H]1Cc1ccccc1 [Example 117, (R)-4-(2-Benzylpiperazine-1-carbonyl)-1-(2-nitrophenyl)-5-phenyl-1H-imidazol-2(3H)-one]",< 100
3,"O=C(c1c(-c2ccccc2)n(C2CCCCC2)c(=O)n1Cc1cc(Cl)nc(N2CCOCC2)c1)N1CCNCC1 [Example 90, 1-((2-Chloro-6-morpholinopyridin-4-yl)methyl)-3-cyclohexyl-4-phenyl-5-(piperazine-1-carbonyl)-1H-imidazol-2(3H)-one]",500 to 1000
4,"Cn1c(C(=O)N2CCNCC2)c(-c2ccccc2)n(C2CCCCC2)c1=O [Example 60, 1-Cyclohexyl-3-methyl-5-phenyl-4-(piperazine-1-carbonyl)-1H-imidazol-2(3H)-one]",> 1000
5,"Cc1ccccc1-n1c(-c2ccccc2)c(C(=O)N2CCNCC2)n(CCCNC(=O)C(C)C)c1=O [Example 246, N-(3-(2-oxo-4-phenyl-5-(piperazine-1-carbonyl)-3-o-tolyl-2,3-dihydro-1H-imidazol-1-yl)propyl)isobutyramide]",> 1000
6,"Cc1ccccc1-n1c(-c2ccccc2)c(C(=O)N2CCNCC2)n(CCCNC(=O)OCc2ccccc2)c1=O [Example 255, Benzyl 3-(2-oxo-4-phenyl-5-(piperazine-1-carbonyl)-3-o-tolyl-2,3-dihydro-1H-imidazol-1-yl)propylcarbamate]",> 1000
7,"C=CCn1c(C(=O)N2CCNCC2)c(-c2ccccc2)n(-c2cccc(N3CCOCC3)c2)c1=O [Example 150, 1-Allyl-3-(3-morpholinophenyl)-4-phenyl-5-(piperazine-1-carbonyl)-1H-imidazol-2(3H)-one]",> 1000
8,"Cc1ccccc1-n1c(-c2ccccc2)c(C(=O)N2CCNCC2)n(Cc2ccc(F)c(F)c2)c1=O [Example 144, 1-(3,4-Difluorobenzyl)-4-phenyl-5-(piperazine-1-carbonyl)-3-o-tolyl-1H-imidazol-2(3H)-one]",500 to 1000
9,"Cc1ccccc1-n1c(-c2ccccc2)c(C(=O)N2CCNCC2)n(CCNC(=O)Nc2ccc(Cl)cc2)c1=O [Example 213, 1-(4-Chlorophenyl)-3-(2-(2-oxo-4-phenyl-5-(piperazine-1-carbonyl)-3-o-tolyl-2,3-dihydro-1H-imidazol-1-yl)ethyl)urea]",100 to 500
10,"CCOC(=O)NCCn1c(C(=O)N2CCNCC2)c(-c2ccccc2)n(-c2ccccc2C)c1=O [Example 250, Ethyl 2-(2-oxo-4-phenyl-5-(piperazine-1-carbonyl)-3-o-tolyl-2,3-dihydro-1H-imidazol-1-yl)ethylcarbamate]",> 1000
11,"O=C(c1[nH]c(=O)n(C2CCCN(S(=O)(=O)c3ccccc3)C2)c1-c1ccccc1)N1CCNCC1 (stereo not drawn) [Example 98, 5-Phenyl-1-(1-(phenylsulfonyl)piperidin-3-yl)-4-(piperazine-1-carbonyl)-1H-imidazol-2(3H)-one]",500 to 1000
12,"O=C(c1c(-c2ccccc2)n(-c2cccc(N3CCOCC3)c2)c(=O)n1CCCNS(=O)(=O)c1cccc(Cl)c1)N1CCNCC1 [Example 195, 3-Chloro-N-(3-(3-(3-morpholinophenyl)-2-oxo-4-phenyl-5-(piperazine-1-carbonyl)-2,3-dihydro-1H-imidazol-1-yl)propyl)benzenesulfonamide]",500 to 1000
13,"O=C(NC[C@@H]1CNCCN1C(=O)c1[nH]c(=O)n(C2CCCCC2)c1-c1ccccc1)c1ccccc1 [Example 108, (S)—N-((1-(1-Cyclohexyl-2-oxo-5-phenyl-2,3-dihydro-1H-imidazole-4-carbonyl)piperazin-2-yl)methyl)benzamide]",< 100
14,"COC(=O)C(c1ccccc1)n1c(C(=O)N2CCNCC2)c(-c2ccccc2)n(C2CCCCC2)c1=O (stereo not drawn) [Example 68, Methyl 2-(3-cyclohexyl-2-oxo-4-phenyl-5-(piperazine-1-carbonyl)-2,3-dihydro-1H-imidazol-1-yl)-2-phenylacetate]",> 1000
15,"COCCCOc1cccc(-n2c(-c3ccccc3)c(C(=O)N3CCNCC3)n(CCCNS(=O)(=O)c3ccccc3)c2=O)c1 [Example 180, N-(3-(3-(3-(3-Methoxypropoxy)phenyl)-2-oxo-4-phenyl-5-(piperazine-1-carbonyl)-2,3-dihydro-1H-imidazol-1-yl)propyl)benzenesulfonamide]",100 to 500
16,"O=C(NCCCn1c(C(=O)N2CCNCC2)c(-c2ccccc2)n(C2CCCC[C@@H]2O)c1=O)c1ccccc1 (stereo partly drawn) [Example 170, N-(3-(3-((2S)-2-Hydroxycyclohexyl)-2-oxo-4-phenyl-5-(piperazine-1-carbonyl)-2,3-dihydro-1H-imidazol-1-yl)propyl)benzamide]",> 1000

# Next, values leading:
row,IC50 [nM],Compound
1,> 1000,"COC(=O)NCCn1c(C(=O)N2CCNCC2)c(-c2ccccc2)n(-c2ccccc2C)c1=O [Example 249, Methyl 2-(2-oxo-4-phenyl-5-(piperazine-1-carbonyl)-3-o-tolyl-2,3-dihydro-1H-imidazol-1-yl)ethylcarbamate]"
2,100 to 500,"COc1cccc(Cn2c(C(=O)N3CCNCC3)c(-c3ccccc3)n(-c3cccc(N4CCOCC4)c3)c2=O)c1 [Example 151, 1-(3-Methoxybenzyl)-3-(3-morpholinophenyl)-4-phenyl-5-(piperazine-1-carbonyl)-1H-imidazol-2(3H)-one]"
3,< 100,"C=CCn1c(C(=O)N2CCNC[C@H]2Cc2ccccc2)c(-c2ccccc2)n(C2CCCCC2)c1=O [Example 64, (R)-1-Allyl-5-(2-benzylpiperazine-1-carbonyl)-3-cyclohexyl-4-phenyl-1H-imidazol-2(3H)-one]"
4,> 1000,"CC1CN(C(=O)c2[nH]c(=O)n(C3CCCCC3)c2-c2ccccc2)CC(C)N1 (stereo not drawn) [Example 40, 1-Cyclohexyl-4-(3,5-dimethylpiperazine-1-carbonyl)-5-phenyl-1H-imidazol-2(3H)-one]"
5,> 1000,"CC(C)CC(=O)NCCn1c(C(=O)N2CCNCC2)c(-c2ccccc2)n(C2CCCC[C@@H]2O)c1=O (stereo partly drawn) [Example 173, N-(2-(3-((2S)-2-Hydroxycyclohexyl)-2-oxo-4-phenyl-5-(piperazine-1-carbonyl)-2,3-dihydro-1H-imidazol-1-yl)ethyl)-3-methylbutanamide]"
6,500 to 1000,"O=C(c1[nH]c(=O)n(-c2cccc(N3CCOCC3)c2)c1-c1ccccc1)N1CCNCC1 [Example 22, 1-(3-Morpholinophenyl)-5-phenyl-4-(piperazine-1-carbonyl)-1H-imidazol-2(3H)-one]"
7,> 1000,"CC(C)S(=O)(=O)NCCCn1c(C(=O)N2CCNCC2)c(-c2ccccc2)n(-c2cccc(N3CCOCC3)c2)c1=O [Example 196, N-(3-(3-(3-Morpholinophenyl)-2-oxo-4-phenyl-5-(piperazine-1-carbonyl)-2,3-dihydro-1H-imidazol-1-yl)propyl)propane-2-sulfonamide]"
8,> 1000,"Cc1ccccc1-n1c(-c2ccccc2)c(C(=O)N2CCNCC2)n(CCCNC(=O)c2cccc(Cl)c2)c1=O [Example 242, 3-Chloro-N-(3-(2-oxo-4-phenyl-5-(piperazine-1-carbonyl)-3-o-tolyl-2,3-dihydro-1H-imidazol-1-yl)propyl)benzamide]"
